Values joined by “and” are separate entries in the source; they are usually repeats but may differ in a detail not shown here. Equal values may be shown once.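 Briefly, cells in 96-well plates were exposed to five compound concentrations for 48 h, and endpoints were estimated by linear interpolation. GI50: concentration for 50% inhibition of growth. TGI marks complete inhibition of growth.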 Some results are limits rather than exact numbers.

The subject of one experiment is CAKI-1 renal. The experiment in a line: NCI-60 cell line screen, 48 h.
For `CC[N+]1(C)CCC(O)(c2ccc(C)cc2)C(C(=O)c2ccc(C)cc2)C1` (centres undefined), the TGI was 61.4 µM.
Consider `CC(=O)c1cccc(N(/C=C/C(=O)C(F)(F)F)CC(=O)c2ccc(Cl)cc2)c1`, for which the GI50 is over 100 µM and the TGI was over 100 µM.
As for `C#C[C@]1(O)CC[C@H]2[C@@H]3CC=C4c5nc(Nc6ccccn6)sc5CC[C@]4(C)[C@H]3CC[C@@]21C`, the GI50 is 1.26 µM and the TGI was 3.1 µM.
As for `CSc1ccc(C2=Nn3c(nnc3-c3ccc(F)c(Cl)c3)SC2)cc1`, the GI50 is 22.5 µM and the TGI is over 100 µM.
`O=c1oc2ccccc2c(O)c1C=NC(=S)c1ccncc1` yielded a TGI of over 100 µM.
On to `COc1ccc(-c2cc(-c3ccc(Cl)cc3)c(C#N)c(=O)n2CCCCC(=O)Nc2ccccc2N)cc1`, for which the GI50 was 2.52 µM and the TGI amounted to 20.2 µM.
Compound `CC1(C)C(=O)C(O)=CC2C1=CCC1C2(C)C(=O)CC2(C)C(C(C)(O)C(=O)CC(O)C(C)(C)O)C(O)CC12C` (centres undefined) had a TGI of 5.1 µM.
On the same count and under the same terms, in the case of `Cc1cc2c(C(C)C)c(O)c(O)c(C=Nc3cc(C(F)(F)F)ccc3Cl)c2c(O)c1-c1c(C)cc2c(C(C)C)c(O)c(O)c(C=Nc3cc(C(F)(F)F)ccc3Cl)c2c1O` it was over 100 µM.
`COc1cc(C2c3cc4c(cc3[C@@H](Nc3ccc(N(C)C)cc3)[C@H]3COC(=O)C23)OCO4)cc(OC)c1O` (some centres undefined): the GI50 was 0.311 µM; the TGI is 1.03 µM and 3.42 µM.
`O=c1nc(-c2ccccc2)c2c3c(cccn13)CCC2` displayed a TGI of over 100 µM.
On to `COc1ccc([C@H]2CC(=O)N3CCCC3N2)cc1` (some centres undefined), for which the TGI is over 100 µM.
Compound `C=C(C)C1CC2C(C)=C(OC(C)=O)C1n1c(=O)c3cc4ccccc4cc3c(=O)n12` (centres undefined) had a TGI of over 100 µM.
Consider `COc1cc2cc(Oc3ccc(NC(=O)c4cccc(C(F)(F)F)c4)cc3)c(C)nc2cc1OC`, for which the GI50 is 2.75 µM and the TGI is over 100 µM.
Consider `O=C(CCc1nc(=S)[nH][nH]1)NC12CC3CC(CC(C3)C1)C2`, for which the TGI was over 100 µM.
As to `CSc1ccc(/C=C2\CNC/C(=C\c3ccc(SC)cc3)C2=O)cc1`, the GI50 was 90.3 µg/mL and the TGI was determined as 150 µg/mL.
Taken in the same sequence, the figures for `COC(=O)C1=C(OC(=O)c2ccc(Cl)cc2)C(C(=O)OC)[C@@]2(O)[C@@H](C(=O)OC)C(c3ccccc3C(F)(F)F)C[C@@H]1[C@@H]2C(=O)OC` (some centres undefined) were 13.9 µM and 36.1 µM.
Compound `N#CC(C#N)SCc1ccccc1` returned a TGI of over 100 µM.

In the next experiment the test system is K-562 leukemia. The experiment in a line: NCI-60 cell line screen, 48 h.
`CC[N+]1(C)CCC(O)(c2ccc(C)cc2)C(C(=O)c2ccc(C)cc2)C1` (centres undefined) yielded a TGI of 37.5 µM.
On to `CC(=O)c1cccc(N(/C=C/C(=O)C(F)(F)F)CC(=O)c2ccc(Cl)cc2)c1`, for which the GI50 is over 100 µM and the TGI is over 100 µM.
Regarding `C#C[C@]1(O)CC[C@H]2[C@@H]3CC=C4c5nc(Nc6ccccn6)sc5CC[C@]4(C)[C@H]3CC[C@@]21C`, the GI50 was 0.348 µM and the TGI was found to be 2.13 µM.
Taken in the same sequence, the figures for `CSc1ccc(C2=Nn3c(nnc3-c3ccc(F)c(Cl)c3)SC2)cc1` were 2.28 µM and over 100 µM.
As to `CC(C)(C)OC(=O)NCC(C#N)CNC(=O)OC(C)(C)C`, the TGI is over 100 µM.
`COc1ccc(-c2cc(-c3ccc(Cl)cc3)c(C#N)c(=O)n2CCCCC(=O)Nc2ccccc2N)cc1`: the GI50 is 4.18 µM and the TGI was over 100 µM.
Compound `CC1(C)C(=O)C(O)=CC2C1=CCC1C2(C)C(=O)CC2(C)C(C(C)(O)C(=O)CC(O)C(C)(C)O)C(O)CC12C` (centres undefined) had a TGI of over 80.2 µM.
On to `Cc1cc2c(C(C)C)c(O)c(O)c(C=Nc3cc(C(F)(F)F)ccc3Cl)c2c(O)c1-c1c(C)cc2c(C(C)C)c(O)c(O)c(C=Nc3cc(C(F)(F)F)ccc3Cl)c2c1O`, for which the TGI was over 100 µM.
For `COc1cc(C2c3cc4c(cc3[C@@H](Nc3ccc(N(C)C)cc3)[C@H]3COC(=O)C23)OCO4)cc(OC)c1O` (some centres undefined), the GI50 is 2.41 µM; the TGI was 75 µM and 36.8 µM.
`O=c1nc(-c2ccccc2)c2c3c(cccn13)CCC2` showed a TGI of over 100 µM.
On the same count and under the same terms, the same measure for `COc1ccc([C@H]2CC(=O)N3CCCC3N2)cc1` (some centres undefined): over 100 µM.
Still for that read-out and setting: the same measure for `C=C(C)C1CC2C(C)=C(OC(C)=O)C1n1c(=O)c3cc4ccccc4cc3c(=O)n12` (centres undefined): over 100 µM.
With `COc1cc2cc(Oc3ccc(NC(=O)c4cccc(C(F)(F)F)c4)cc3)c(C)nc2cc1OC`, the GI50 is 4.25 µM and the TGI was over 100 µM.
`COc1cc(Nc2ccnc(N3CCN(c4ccnc5cc(Cl)ccc45)CC3)n2)cc(OC)c1`: the GI50 was 0.432 µM and the TGI was over 100 µM.
Compound `O=C(CCc1nc(=S)[nH][nH]1)NC12CC3CC(CC(C3)C1)C2` displayed a TGI of over 100 µM.
Consider `CSc1ccc(/C=C2\CNC/C(=C\c3ccc(SC)cc3)C2=O)cc1`, for which the GI50 was 150 µg/mL; the TGI is > 371 µM and 150 µg/mL.
`COC(=O)C1=C(OC(=O)c2ccc(Cl)cc2)C(C(=O)OC)[C@@]2(O)[C@@H](C(=O)OC)C(c3ccccc3C(F)(F)F)C[C@@H]1[C@@H]2C(=O)OC` (some centres undefined): the GI50 was 3.36 µM and the TGI was over 100 µM.
Turning to `CC[C@H](C)[C@H](NC(=O)c1cnccn1)C(=O)N(C)[C@H](C[C@@H](OC(C)=O)c1nc(C(=O)N[C@@H](Cc2ccccc2)C[C@H](C)C(=O)OC)cs1)C(C)C`, the GI50 was 0.662 µM and the TGI is over 33.3 µM.

For another experiment, the system named is NCI-H522 lung. The experiment in a line: NCI-60 cell line screen, 48 h.
Regarding `CC[N+]1(C)CCC(O)(c2ccc(C)cc2)C(C(=O)c2ccc(C)cc2)C1` (centres undefined), the TGI came out at 41.7 µM.
On to `CC(=O)c1cccc(N(/C=C/C(=O)C(F)(F)F)CC(=O)c2ccc(Cl)cc2)c1`, for which the GI50 was over 100 µM and the TGI is over 100 µM.
With `C#C[C@]1(O)CC[C@H]2[C@@H]3CC=C4c5nc(Nc6ccccn6)sc5CC[C@]4(C)[C@H]3CC[C@@]21C`, the GI50 was 1.86 µM and the TGI stood at 4.12 µM.
Take `CSc1ccc(C2=Nn3c(nnc3-c3ccc(F)c(Cl)c3)SC2)cc1`: the GI50 is 4.38 µM and the TGI came to 21.4 µM.
Regarding `CC(C)(C)OC(=O)NCC(C#N)CNC(=O)OC(C)(C)C`, the TGI was over 100 µM.
As to `COc1ccc(-c2cc(-c3ccc(Cl)cc3)c(C#N)c(=O)n2CCCCC(=O)Nc2ccccc2N)cc1`, the GI50 is 7.04 µM and the TGI came out at 57.1 µM.
On to `CC1(C)C(=O)C(O)=CC2C1=CCC1C2(C)C(=O)CC2(C)C(C(C)(O)C(=O)CC(O)C(C)(C)O)C(O)CC12C` (centres undefined), for which the TGI came to 8.61 µM.
